According to patent US20240391931A1 (Bristol-Myers Squibb Company, priority 2021, published 2024):

Assays:
[1] = biological target: EGFR (Homo sapiens, UniProt P00533); assay: EGFR signaling (pEGFR Tyr1068/total EGFR MSD) in A431 cells; type: cell-based; design: endogenous in cells; host or cells: A431, N87; settings: for EC50: A431 cells, read-out: A431 pEGFR EC50; for Selectivity A431 EC50/BT474 EC50: ratio A431 pEGFR EC50 to BT474 pHER2 EC50; for Selectivity A431 EC50/HEKYVMA EC50: ratio A431 pEGFR EC50 to HEK YVMA pHER2 EC50
Chain of EGFR (P00533 25-1210): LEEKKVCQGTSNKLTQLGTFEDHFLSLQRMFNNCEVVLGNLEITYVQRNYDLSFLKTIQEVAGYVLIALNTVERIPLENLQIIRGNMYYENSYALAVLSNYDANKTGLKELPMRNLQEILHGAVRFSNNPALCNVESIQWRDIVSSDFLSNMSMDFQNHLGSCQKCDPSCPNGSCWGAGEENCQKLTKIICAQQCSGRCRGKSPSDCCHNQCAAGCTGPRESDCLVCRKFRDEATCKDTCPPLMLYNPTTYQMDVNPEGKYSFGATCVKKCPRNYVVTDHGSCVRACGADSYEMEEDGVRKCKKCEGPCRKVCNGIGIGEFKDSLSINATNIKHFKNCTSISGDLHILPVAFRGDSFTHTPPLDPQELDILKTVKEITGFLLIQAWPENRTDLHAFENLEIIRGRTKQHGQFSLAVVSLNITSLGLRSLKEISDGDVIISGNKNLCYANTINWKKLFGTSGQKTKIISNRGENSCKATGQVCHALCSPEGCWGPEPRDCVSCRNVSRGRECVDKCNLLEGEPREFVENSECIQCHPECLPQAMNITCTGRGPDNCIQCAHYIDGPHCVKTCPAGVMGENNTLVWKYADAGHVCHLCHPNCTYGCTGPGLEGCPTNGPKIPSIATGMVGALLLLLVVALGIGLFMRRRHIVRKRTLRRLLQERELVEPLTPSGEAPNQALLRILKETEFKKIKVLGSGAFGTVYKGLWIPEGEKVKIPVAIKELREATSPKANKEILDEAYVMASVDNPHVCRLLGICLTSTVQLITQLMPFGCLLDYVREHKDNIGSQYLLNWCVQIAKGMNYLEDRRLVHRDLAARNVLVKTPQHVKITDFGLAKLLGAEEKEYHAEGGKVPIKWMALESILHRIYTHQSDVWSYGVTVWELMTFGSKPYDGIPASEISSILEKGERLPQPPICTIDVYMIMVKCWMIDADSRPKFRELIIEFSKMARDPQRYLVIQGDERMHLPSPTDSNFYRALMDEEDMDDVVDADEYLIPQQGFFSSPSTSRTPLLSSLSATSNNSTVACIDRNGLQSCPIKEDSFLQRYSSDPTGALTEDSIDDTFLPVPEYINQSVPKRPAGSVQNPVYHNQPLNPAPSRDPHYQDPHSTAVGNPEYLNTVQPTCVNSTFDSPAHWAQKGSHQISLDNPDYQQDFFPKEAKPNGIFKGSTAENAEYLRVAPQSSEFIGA
Procedure, shortened: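 Serum-starved A431 cells were pretreated 1.5 h in 1% FBS with compound (0.005–10 μM, 0.1% DMSO), then stimulated with 100 ng/mL human EGF for 10 min. Lysate pEGFR Tyr1068 was measured by MSD and normalized to total EGFR as % DMSO control; EC50 from variable-slope sigmoidal fit.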

[2] = biological target: T1, HER2 wildtype (WT) protein (Homo sapiens, UniProt P04626); assay: HER2 signaling (pHER2 Tyr1248/total HER2 MSD) in BT474 cells; type: cell-based; settings: 1.5 hr compound, 1% FBS
T1 construct: BT474 and N87 cell lines which endogenously overexpress the HER2 wildtype (WT) protein; endogenous in cells; host or cells: BT474, N87
T1 sequence (P04626 23-1255): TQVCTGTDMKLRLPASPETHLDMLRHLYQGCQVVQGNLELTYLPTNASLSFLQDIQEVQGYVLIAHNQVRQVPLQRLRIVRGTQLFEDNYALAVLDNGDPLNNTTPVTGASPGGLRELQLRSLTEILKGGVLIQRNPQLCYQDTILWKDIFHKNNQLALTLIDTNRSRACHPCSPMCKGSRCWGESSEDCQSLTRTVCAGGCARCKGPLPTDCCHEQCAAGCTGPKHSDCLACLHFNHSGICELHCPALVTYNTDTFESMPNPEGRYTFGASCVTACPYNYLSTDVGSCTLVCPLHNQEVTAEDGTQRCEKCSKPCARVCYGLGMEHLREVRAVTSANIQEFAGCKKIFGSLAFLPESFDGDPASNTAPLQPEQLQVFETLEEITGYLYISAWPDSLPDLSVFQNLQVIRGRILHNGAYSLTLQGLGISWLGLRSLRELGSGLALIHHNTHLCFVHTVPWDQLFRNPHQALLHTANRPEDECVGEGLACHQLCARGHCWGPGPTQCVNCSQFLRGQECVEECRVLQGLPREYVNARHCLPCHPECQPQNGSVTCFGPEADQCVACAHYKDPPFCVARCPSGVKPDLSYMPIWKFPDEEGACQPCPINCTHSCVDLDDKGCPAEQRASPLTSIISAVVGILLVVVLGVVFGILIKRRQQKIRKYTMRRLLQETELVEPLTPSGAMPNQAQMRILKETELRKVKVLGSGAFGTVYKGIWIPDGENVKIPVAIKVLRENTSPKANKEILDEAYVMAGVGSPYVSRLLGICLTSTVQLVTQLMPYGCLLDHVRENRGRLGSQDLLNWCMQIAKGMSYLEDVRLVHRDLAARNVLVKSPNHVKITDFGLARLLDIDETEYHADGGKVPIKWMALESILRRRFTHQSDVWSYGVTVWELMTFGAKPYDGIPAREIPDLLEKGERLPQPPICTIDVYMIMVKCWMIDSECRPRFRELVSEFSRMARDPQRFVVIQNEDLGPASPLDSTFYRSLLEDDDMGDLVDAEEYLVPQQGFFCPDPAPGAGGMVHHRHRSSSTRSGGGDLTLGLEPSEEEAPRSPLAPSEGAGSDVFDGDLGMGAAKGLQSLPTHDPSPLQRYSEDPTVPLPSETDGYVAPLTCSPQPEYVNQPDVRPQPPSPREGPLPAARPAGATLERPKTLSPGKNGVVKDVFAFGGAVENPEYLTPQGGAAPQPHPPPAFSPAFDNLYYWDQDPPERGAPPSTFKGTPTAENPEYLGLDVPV
Procedure, shortened: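 BT474, N87 (HER2 WT) and NCI-H1781 (HER2 G776delinsVC) cells were treated for 1.5 h at 37° C in 1% FBS medium with compound at 0.0005–1.1 μM. pHER2 Tyr1248 was measured by MSD on whole-cell lysates and normalized to total HER2 as % DMSO. EC50 came from a variable-slope sigmoidal fit.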

SMILES	EC50 [1]	Selectivity A431 EC50/BT474 EC50 [1]	Selectivity A431 EC50/HEKYVMA EC50 [1]	EC50 [2]
Cc1ccc(Oc2ccc(Nc3ncnc4sc5c(c34)CCN(C(=O)/C=C/CN(C)C(C)(C)C)C5)cc2C)cn1 [Compound 33]	100 to 1000 nM	B (B: ≥ 20 and < 100)	C (C: ≥ 10 and < 20)	< 100 nM
Cc1ccc(Oc2ccc(Nc3ncnc4sc5c(c34)CCN(C(=O)/C=C/CN3CCCC3C(N)=O)C5)cc2C)cn1 (stereo not shown) [Compound 41]	< 100 nM	B (B: ≥ 20 and < 100)	C (C: ≥ 10 and < 20)	< 100 nM
Cc1ccc(Oc2ccc(Nc3ncnc4sc5c(c34)CCN(C(=O)/C=C/CN[C@@H](C)CO)C5)cc2C)cn1 [Compound 75]	< 100 nM	D (D: ≥ 5 and < 10)	D (D: ≥ 5 and < 10)	< 100 nM
C=CC(=O)N1CCc2[nH]c3ncnc(Nc4ccc(Oc5ccc6ncnn6c5)c(C)c4)c3c2C1 [Compound 102, 1-(4-((4-([1,2,4]triazolo[1,5-a]pyridin-6-yloxy)-3-methylphenyl)amino)-5,7,8,9-tetrahydro-6H-pyrido[3′,4′:4,5]pyrrolo[2,3-d]pyrimidin-6-yl)prop-2-en-1-one]	1000 to 10000 nM	C (C: ≥ 10 and < 20)	C (C: ≥ 10 and < 20)	< 100 nM
CN(C)C/C=C/C(=O)N1CCc2c(sc3ncnc(Nc4ccc(Oc5ccc6ncnn6c5)c(Cl)c4)c23)C1 [Compound 5, (E)-1-(4-((4-([1,2,4]triazolo[1,5-a]pyridin-6-yloxy)-3-chlorophenyl)amino)-5,8-dihydropyrido[4′,3′:4,5]thieno[2,3-d]pyrimidin-7(6H)-yl)-4-(dimethylamino)but-2-en-1-one]	100 to 1000 nM	–	B (B: ≥ 20 and < 100)	< 100 nM
Cc1ccc(Oc2ccc(Nc3ncnc4sc5c(c34)CCN(C(=O)/C=C/CN3CC(O)CO3)C5)cc2C)cn1 (stereo not shown) [Compound 43]	> 10000 nM	B (B: ≥ 20 and < 100)	C (C: ≥ 10 and < 20)	350 to 1000 nM
Cc1ccc(Oc2ccc(Nc3ncnc4sc5c(c34)CCN(C(=O)/C=C/CNCc3cc(C)n[nH]3)C5)cc2C)cn1 [Compound 49]	100 to 1000 nM	B (B: ≥ 20 and < 100)	D (D: ≥ 5 and < 10)	< 100 nM
Cc1ccc(Oc2ccc(Nc3ncnc4sc5c(c34)CCN(C(=O)/C=C/CNC3CCC3)C5)cc2C)cn1 [Compound 54]	100 to 1000 nM	D (D: ≥ 5 and < 10)	D (D: ≥ 5 and < 10)	< 100 nM
Cc1cc(Nc2ncnc3sc4c(c23)CCN(C(=O)/C=C/CN2CC3CCC(C3)C2)C4)ccc1Oc1ccc2ncnn2c1 [Compound 20]	< 100 nM	B (B: ≥ 20 and < 100)	B (B: ≥ 20 and < 100)	< 100 nM
Cc1ccc(Oc2ccc(Nc3ncnc4sc5c(c34)CCN(C(=O)/C=C/CN3CCCOCC3)C5)cc2C)cn1 [Compound 42]	100 to 1000 nM	B (B: ≥ 20 and < 100)	B (B: ≥ 20 and < 100)	< 100 nM
Cc1cc(Nc2ncnc3sc4c(c23)CCN(C(=O)/C=C/CN(C)C(C)(C)C)C4)ccc1Oc1ccc2ncnn2c1 [Compound 80]	100 to 1000 nM	B (B: ≥ 20 and < 100)	B (B: ≥ 20 and < 100)	< 100 nM
Cc1ccc(Oc2ccc(Nc3ncnc4[nH]c5c(c34)CN(C(=O)/C=C/CN(C)C)CC5)cc2C)cn1 [Compound 97, (E)-4-(dimethylamino)-1-(4-((3-methyl-4-((6-methylpyridin-3-yl)oxy)phenyl)amino)-5,7,8,9-tetrahydro-6H-pyrido[3′,4′:4,5]pyrrolo[2,3-d]pyrimidin-6-yl)but-2-en-1-one]	100 to 1000 nM	B (B: ≥ 20 and < 100)	E (E: >1 and < 5)	< 100 nM
C=C(CN1CCc2c(sc3ncnc(Nc4ccc(Oc5ccc(C)nc5)c(C)c4)c23)C1)C(=O)OCC [Compound 86, Ethyl 2-((4-((3-methyl-4-((6-methylpyridin-3-yl)oxy)phenyl)amino)-5,8-dihydropyrido[4′,3′:4,5]thieno[2,3-d]pyrimidin-7(6H)-yl)methyl)acrylate]	> 10000 nM	B (B: ≥ 20 and < 100)	A (A: ≥100)	100 to 350 nM
Cc1ccc(Oc2ccc(Nc3ncnc4sc5c(c34)CCN(C(=O)/C=C/CNCC3CN(C)CCO3)C5)cc2C)cn1 (stereo not shown) [Compound 48]	100 to 1000 nM	B (B: ≥ 20 and < 100)	B (B: ≥ 20 and < 100)	< 100 nM
Cc1ccc(Oc2ccc(Nc3ncnc4sc5c(c34)C(C)CN(C(=O)C=CCN(C)C)C5)cc2C)cn1 (single isomer, unassigned) [Compound 106]	100 to 1000 nM	B (B: ≥ 20 and < 100)	C (C: ≥ 10 and < 20)	< 100 nM
Cc1ccc(Oc2ccc(Nc3ncnc4sc5c(c34)CCCN(C(=O)/C=C/CN(C)C)C5)cc2C)cn1 [Compound 101, (E)-4-(Dimethylamino)-1-(4-((3-methyl-4-((6-methylpyridin-3-yl)oxy)phenyl)amino)-6,7-dihydro-5H-pyrimido[5′,4′:4,5]thieno[2,3-c]azepin-8(9H)-yl)but-2-en-1-one]	100 to 1000 nM	C (C: ≥ 10 and < 20)	C (C: ≥ 10 and < 20)	< 100 nM
Cc1ccc(Oc2ccc(Nc3ncnc4sc5c(c34)CCN(C(=O)/C=C/CN(C)C)CC5)cc2C)cn1 [Compound 100, (E)-4-(dimethylamino)-1-(4-((3-methyl-4-((6-methylpyridin-3-yl)oxy)phenyl)amino)-8,9-dihydro-5H-pyrimido[5′,4′:4,5]thieno[2,3-d]azepin-7(6H)-yl)but-2-en-1-one]	100 to 1000 nM	B (B: ≥ 20 and < 100)	C (C: ≥ 10 and < 20)	< 100 nM
CC(=O)N1CCN(C/C=C/C(=O)N2CCc3c(sc4ncnc(Nc5ccc(Oc6ccc(C)nc6)c(C)c5)c34)C2)CC1 [Compound 51]	1000 to 10000 nM	C (C: ≥ 10 and < 20)	E (E: >1 and < 5)	100 to 350 nM
O=C(/C=C/CN1CC2CC(C2)C1)N1CCc2c(sc3ncnc(Nc4ccc(Oc5ccc6ncnn6c5)c(Cl)c4)c23)C1 [Compound 85]	100 to 1000 nM	C (C: ≥ 10 and < 20)	C (C: ≥ 10 and < 20)	< 100 nM
Cc1cc(Nc2ncnc3sc4c(c23)CCN(C(=O)/C=C/CN2CC3CC2CO3)C4)ccc1Oc1ccc2ncnn2c1 (stereo not shown) [Compound 77]	1000 to 10000 nM	B (B: ≥ 20 and < 100)	D (D: ≥ 5 and < 10)	< 100 nM
Cc1ccc(Oc2ccc(Nc3ncnc4sc5c(c34)C(C)CN(C(=O)C=CCN(C)C)C5)cc2C)cn1 (single isomer, unassigned) [Compound 105]	100 to 1000 nM	C (C: ≥ 10 and < 20)	D (D: ≥ 5 and < 10)	< 100 nM
Cc1ccc(Oc2ccc(Nc3ncnc4sc5c(c34)CCN(C(=O)/C=C/CN3CC4CC3CO4)C5)cc2C)cn1 (stereo not shown) [Compound 26]	< 100 nM	D (D: ≥ 5 and < 10)	D (D: ≥ 5 and < 10)	< 100 nM
COCCN1CCN(C/C=C/C(=O)N2CCc3c(sc4ncnc(Nc5ccc(Oc6ccc(C)nc6)c(C)c5)c34)C2)CC1 [Compound 59]	100 to 1000 nM	B (B: ≥ 20 and < 100)	C (C: ≥ 10 and < 20)	< 100 nM
